System: tobacco budworm (Heliothis virescens [Fabricius])
Assay: surface-treated diet test, insecticidal activity against tobacco budworm
Format: in vivo
Parameters: mortality: concentration or dose not given beside the values
Conditions: 0.25 millimoles of candidate insecticide on the surface of the diet, second instar larvae, five-day exposure
Summary of the method: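 Wheat germ artificial diet surface-treated with compound from 50 mM DMSO stock diluted 1:7 in 1:1 water/acetone (0.25 millimolar on diet), or lower-rate dilutions; DMSO-only controls. One second-instar larva per well, 25° C, 60% RH, 14 h light, five days; percent weight inhibition versus untreated and percent mortality scored.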

[1] = compared to total number of insects infested
[2] = inhibition of insect weight relative to untreated controls

| Compound | Percent Mortality [1] [%] | Percent Growth Inhibition [2] [%] | mortality (Heliothis virescens, 120 h, compared to total number of insects infested, read-out: Percent Mortality) [%] | pest or weed control at 0.25 mmol/well (Heliothis virescens, 120 h, inhibition of insect weight relative to untreated controls, read-out: Percent Growth Inhibition) [%] |
| --- | --- | --- | --- | --- |
| [N-]=[N+]=NCC1(C(c2ccc(C(F)(F)F)cc2)c2ccc(C(F)(F)F)cc2)CC[N+]([O-])(Cc2ccc(OCC3CC3)cc2)CC1 (centres unmarked) [Compound 467] | 50 | 100 |  |  |
| CCON=Cc1ccc(CN2CCC(O)(C(O)(c3ccc(OC(F)(F)F)cc3)c3ccc(OC(F)(F)F)cc3)CC2)cc1 [Compound 417] | 100 | 100 |  |  |
| OC1(C(c2ccc(OC(F)(F)F)cc2)c2ccc(OC(F)(F)F)cc2)CCN(Cc2ccc(Oc3ccccn3)cc2)CC1 [Compound 21, 4-{bis[4-(trifluoromethoxy)phenyl]methyl}-1-[(4-(2-pyridyloxy)phenyl)methyl]piperidin-4-ol] |  |  | 100 | 100 |
| [O-][N+]1(Cc2ccc(Oc3ccccn3)cc2)CCC(O)(C(c2ccc(OC(F)(F)F)cc2)c2cccc(Cl)c2)CC1 (centres unmarked) [Compound 458] | 100 | 100 |  |  |
| CC(C)OC(=O)c1ccc(C[N+]2([O-])CCC(O)(C(c3ccc(C(F)(F)F)cc3)c3ccc(C(F)(F)F)cc3)CC2)cc1 (centres unmarked) [Compound 407] | 100 | 100 |  |  |
| ON=Cc1ccc(CN2CCC(O)(C(c3ccc(C(F)(F)F)cc3)c3ccc(C(F)(F)F)cc3)CC2)cc1 [Compound 270] | 100 | 100 |  |  |
| OC1(C(c2ccc(OC(F)(F)F)cc2)c2ccc(OC(F)(F)F)cc2)CCN(Cc2ccc(OCC3CC3)cc2)CC1 [Compound 315] | 100 | 100 |  |  |
| O=S(=O)([O-])CCCO.OC1(C(c2ccc(OC(F)(F)F)cc2)c2ccc(OC(F)(F)F)cc2)CC[N+](O)(Cc2ccc(Oc3ccccn3)cc2)CC1 (centres unmarked) [Compound 500] | 100 | 100 |  |  |
| OC1(C(c2ccc(Br)cc2)c2ccc(OC(F)(F)F)cc2)CCN(Cc2ccc(Oc3ccccn3)cc2)CC1 (centres unmarked) [Compound 261] | 100 | 100 |  |  |
| COc1cc(CN2CCC(O)(C(c3ccc(OC(F)(F)F)cc3)c3ccc(OC(F)(F)F)cc3)CC2)ccc1Oc1ccccn1 [Compound 447] | 100 | 100 |  |  |
| CCON=Cc1ccc(C[N+]2(O)CCC(O)(C(c3ccc(OC(F)(F)F)cc3)c3ccc(OC(F)(F)F)cc3)CC2)cc1.CCS(=O)(=O)[O-] (centres unmarked) [Compound 491] | 100 | 100 |  |  |
| OC1(C(c2ccc(Cl)cc2)c2ccc(Cl)cc2)CCN(Cc2ccc(Oc3ccccn3)cc2)CC1 [Compound 267] | 100 | 100 |  |  |
| CCn1nnc(-c2ccc(C[N+]3([O-])CCC(O)(C(c4ccc(OC(F)(F)F)cc4)c4ccc(OC(F)(F)F)cc4)CC3)cc2)n1 (centres unmarked) [Compound 114] | 100 | 100 |  |  |
| [O-][N+]1(Cc2ccc(Oc3ccccn3)cc2)CCC(O)(C(c2ccc3c(c2)OC(F)(F)O3)c2ccc3c(c2)OC(F)(F)O3)CC1 (centres unmarked) [Compound 464] | 100 | 100 |  |  |
| [O-][N+]1(Cc2ccc(Oc3ccccn3)cc2)CCC(O)(C(c2ccc(OC(F)(F)F)cc2)c2ccc(C(F)(F)F)cc2)CC1 (centres unmarked) [Compound 343] | 100 | 100 |  |  |
| CCON=Cc1ccc(C[N+]2([O-])CCC(O)(C(c3ccc(Cl)cc3)c3ccc(OC(F)(F)F)cc3)CC2)cc1 (centres unmarked) [Compound 405] | 100 | 100 |  |  |
| OC1(C(c2ccc(OC(F)(F)F)cc2)c2ccc(OC(F)(F)F)cc2)CCN(CCc2ccc(Cl)cc2)CC1 [Compound 474] | 83 | 100 |  |  |
| [O-][N+]1(CCCOc2ccc(Cl)cc2)CCC(O)(C(c2ccc(OC(F)(F)F)cc2)c2ccc(OC(F)(F)F)cc2)CC1 (centres unmarked) [Compound 481] | 100 | 100 |  |  |
| N#Cc1cccnc1Oc1ccc(CN2CCC(O)(C(c3ccc(OC(F)(F)F)cc3)c3ccc(OC(F)(F)F)cc3)CC2)cc1 [Compound 281] | 100 | 100 |  |  |
| OC1(C(c2ccc(OC(F)(F)F)cc2)c2ccc(OC(F)(F)F)cc2)CCN(Cc2ccc(C=NOCCF)cc2)CC1 [Compound 312] | 100 | 100 |  |  |
| CC(C)=CCCC(C)CC(=O)[O-].OC1(C(c2ccc(OC(F)(F)F)cc2)c2ccc(OC(F)(F)F)cc2)CC[N+](O)(Cc2ccc(Oc3ccccn3)cc2)CC1 (centres unmarked) [Compound 509] | 100 | 100 |  |  |
| [O-][N+]1(Cc2ccc(Oc3ccccn3)cc2)CCC(O)(C(F)(c2ccc(OC(F)(F)F)cc2)c2ccc(OC(F)(F)F)cc2)CC1 (centres unmarked) [Compound 430] | 100 | 100 |  |  |

| Compound | Percent Mortality [1] [%] | Percent Growth Inhibition [2] [%] | mortality (Heliothis virescens, 120 h, compared to total number of insects infested, read-out: Percent Mortality) [%] | pest or weed control at 0.25 mmol/well (Heliothis virescens, 120 h, inhibition of insect weight relative to untreated controls, read-out: Percent Growth Inhibition) [%] |
| --- | --- | --- | --- | --- |
| CCCCCCCCCCCCc1ccc(S(=O)(=O)[O-])cc1.OC1(C(c2ccc(OC(F)(F)F)cc2)c2ccc(OC(F)(F)F)cc2)CC[N+](O)(Cc2ccc(Oc3ccccn3)cc2)CC1 (centres unmarked) [Compound 515] | 100 | 100 |  |  |
| O=C([O-])C12CC3CC(CC(C3)C1)C2.OC1(C(c2ccc(OC(F)(F)F)cc2)c2ccc(OC(F)(F)F)cc2)CC[N+](O)(Cc2ccc(Oc3ccccn3)cc2)CC1 (centres unmarked) [Compound 511] | 100 | 100 |  |  |
| OC1(C(c2ccc(C(F)(F)F)cc2)c2cccc(Cl)c2)CCN(Cc2ccc(Oc3ncccn3)cc2)CC1 (centres unmarked) [Compound 14] | 100 | 100 |  |  |
| O=C(O)CC(O)(CC(=O)O)C(=O)[O-].OC1(C(c2ccc(OC(F)(F)F)cc2)c2ccc(OC(F)(F)F)cc2)CC[N+](O)(Cc2ccc(Oc3ccc(Cl)nn3)cc2)CC1 (centres unmarked) [Compound 492] | 100 | 100 |  |  |
| Cc1cc(C(c2ccc(OC(F)(F)F)cc2)C2(O)CCN(Cc3ccc(Oc4ccccn4)cc3)CC2)ccc1Cl (centres unmarked) [Compound 435] | 100 | 100 |  |  |
| O=C([O-])CO.OC1(C(c2ccc(OC(F)(F)F)cc2)c2ccc(OC(F)(F)F)cc2)CC[N+](O)(Cc2ccc(Oc3ccccn3)cc2)CC1 (centres unmarked) [Compound 510] | 100 | 100 |  |  |
| CC(C)OC(=O)Nc1ccc(C[N+]2(Cc3ccc(NC(=O)OC(C)C)cc3)CCC(O)(C(O)(c3ccc(OC(F)(F)F)cc3)c3ccc(OC(F)(F)F)cc3)CC2)cc1.[Cl-] [Compound 521] | 50 | 100 |  |  |
| OC1(C(c2ccc(F)cc2)c2ccc(OC(F)(F)F)cc2)CCN(Cc2ccc(Oc3ccccn3)cc2)CC1 (racemic) [Compound 268] | 100 | 100 |  |  |
| [O-][N+]1(Cc2ccc(OCC=C(Cl)Cl)cc2)CCC(O)(C(c2ccc(OC(F)(F)F)cc2)c2ccc(OC(F)(F)F)cc2)CC1 (centres unmarked) [Compound 371] | 100 | 100 |  |  |
| CC(C)(C)c1ccc(C(c2ccc(OC(F)(F)F)cc2)C2(O)CCN(Cc3ccc(Oc4ccccn4)cc3)CC2)cc1 (centres unmarked) [Compound 257] | 100 | 100 |  |  |
| CC(C)OC(=O)Nc1ccc(CN2CCC(O)(C(O)(c3ccc(OC(F)(F)F)cc3)c3ccc(OC(F)(F)F)cc3)CC2)cc1 [Compound 419] | 100 | 100 |  |  |
| [O-][N+]1(CCOc2ccc(Br)cc2)CCC(O)(C(c2ccc(OC(F)(F)F)cc2)c2ccc(OC(F)(F)F)cc2)CC1 (centres unmarked) [Compound 482] | 100 | 100 |  |  |
| COc1ccc(C(c2ccc(OC(F)(F)F)cc2)C2(O)CC[N+]([O-])(Cc3ccc(Oc4ccccn4)cc3)CC2)cc1 (centres unmarked) [Compound 338] | 100 | 100 |  |  |
| CC(C)(C)NC(=O)Oc1ccc(CN2CCC(O)(C(c3ccc(OC(F)(F)F)cc3)c3ccc(OC(F)(F)F)cc3)CC2)cc1 [Compound 311] | 100 | 100 |  |  |
| [O-][N+]1(Cc2ccc(Oc3ccccn3)cc2)CCC(O)(C(c2ccc(Cl)cc2)c2ccc(Cl)cc2)CC1 (centres unmarked) [Compound 345] | 100 | 100 |  |  |
| OC1(C(c2ccc(OC(F)(F)F)cc2)c2ccc(Cl)cc2Cl)CCN(Cc2ccc(Oc3ccccn3)cc2)CC1 (centres unmarked) [Compound 433] | 100 | 100 |  |  |
| OC1(C(c2ccc(OC(F)(F)F)cc2)c2ccc(OC(F)(F)F)cc2)CCN(Cc2ccc(OCc3ccccc3)cc2)CC1 [Compound 304] | 100 | 100 |  |  |
| CCOC(=O)CNC(=O)Oc1ccc(CN2CCC(O)(C(c3ccc(OC(F)(F)F)cc3)c3ccc(OC(F)(F)F)cc3)CC2)cc1 [Compound 317] | 100 | 100 |  |  |
| O=C([O-])C1CCCCC1.OC1(C(c2ccc(OC(F)(F)F)cc2)c2ccc(OC(F)(F)F)cc2)CC[N+](O)(Cc2ccc(Oc3ccccn3)cc2)CC1 (centres unmarked) [Compound 502] | 100 | 100 |  |  |
| NC(=O)CON=Cc1ccc(C[N+]2(O)CCC(O)(C(c3ccc(OC(F)(F)F)cc3)c3ccc(OC(F)(F)F)cc3)CC2)cc1.O=C(O)CC(O)(CC(=O)O)C(=O)[O-] (centres unmarked) [Compound 489] | 100 | 100 |  |  |
| CC(C)OC(=O)Nc1ccc(C[N+]2([O-])CCC(O)(C(c3ccc(OC(F)(F)F)cc3)c3ccc(OC(F)(F)F)cc3)CC2)cc1 (centres unmarked) [Compound 119] | 100 | 100 |  |  |

— patent US8119563B2, “N-substituted azacycles” (FMC Corporation, priority 2003, dated 2012)
